These results are taken from US11642319B2, “Targeted nanogels for urinary bladder therapies” (THE REGENTS OF THE UNIVERSITY OF COLORADO, priority 2017, dated 2023).

Experiment [1] can be described thus: Peptide binding to heparin-coated wells. As to conditions: FIG. 5B. The method, then: (§1) The peptides CGKRK (SEQ ID NO:1) and KAREC (SEQ ID NO:2) were diluted two-fold in PBS at different concentrations and added to collagen- and heparin-coated wells preblocked with 5% bovine serum albumin. The plates were incubated at room temperature for 1 hour, washed 4 times with 200 μL PBS, and scanned at […] of 485 and 515 nm using a SpectraMax M5 fluorescence plate reader. The PBS background was subtracted from the data points, and the data were plotted with Prism.

The next experiment has as its target collagen type I (Homo sapiens, UniProt P02452+P08123). The experiment is described as follows: Peptide binding to collagen-coated wells. As to conditions: FIG. 5C. The method, then:
as §1

For the next experiment, the system named is bladder urothelium. Nature of the experiment: Intravesical peptide binding to the mouse bladder with or without injury (in situ imaging, histology). It is filed as in vivo, mice. As to conditions: for Binding in the bladder, in situ images: 15 minutes incubation; for Histological analysis of binding, entire bladder: 2× magnification. As to the method:
Eight-to twelve-week-old female mice were anesthetized with isoflurane using a vaporizer machine at a flow rate of 1-3 L/min. The mice were placed on their backs and their urethra openings were pulled forward while squeezing the bladder to express urine. A lubricated 24 G Angiocath catheter with no needle was inserted via the urethra into the bladder cavity to wash the bladder once with […] PBS. To imitate a bladder injury subsequent to bladder cancer surgery, in which the urothelium is damaged after the removal of cancer tissues, the catheter tip was inserted completely and five circular motions were made in the apical part of the bladder. A 1 mL syringe with 100 μL of a CGKRK peptide (SEQ ID NO:1) solution (0.3 mg/mL in 80% PBS/20% DMSO) was attached to the catheter, and approximately 50 μL of the solution was injected into the bladder until the bladder was completely distended, as determined by abdominal palpitation. The catheter with attached syringe was left in the bladder for 15 minutes. After incubation, the peptide was removed via negative pressure, and the bladder was washed 5 times with PBS, with complete filling of the bladder each time. A Dino-Lite AM4113T-GRFBY camera equipped with 480- and 570-nm excitation filters and 510- and 610-nm long pass emission filters was used to take images of the bladder in situ. The abdominal cavity was opened by incision, and the bladder was imaged at 20 to 40 times magnification. The images were acquired at 1280×1024 resolution.
Freshly removed bladders were washed in PBS and snap frozen in liquid nitrogen. The tissue was embedded in optical cutting temperature (OCT) media and cryosectioned in consecutive 7-μm steps so that alternating sections were mounted on slides for fluorescence imaging and hematoxylin-eosin (H&E) staining, respectively. The tissues on each slide were fixed in a 10% buffered formalin solution, mounted with Vectashield™ antifade mounting medium with DAPI (for fluorescence imaging) or Permount™ medium (for H&E staining), and covered with a coverslip. The bladders imaged with a Nikon E600 upright fluorescence microscope with a SPOT RT color camera. The images in each fluorescence channel were acquired under saturation as 12-bit gray TIFF files, and H&E images were acquired as RGB images. Each low-magnification image covering the entire bladder area was analyzed with ImageJ software. The background was subtracted, and the integrated gray density per image was calculated. The intensities were plotted as individual values using Prism software.
Referring now to FIGS. 6A and 6B, the effect of mechanical injury on accumulation of peptides in the bladder is illustrated. Mice were treated by washing the bladder and inducing injury to the mucosal surface of the bladder; the peptide was then injected into the bladder and incubated 15 minutes; the bladder was then washed 5 times. […] The arrows in FIGS. 6A and 6B indicate the apical region of the bladder.
An investigation of the mechanisms of injury-induced accumulation of CGKRK (SEQ ID NO:1) was conducted. CGKRK (SEQ ID NO:1) was mixed with EDTA-treated blood and administered intravesically. […] Mice were pretreated with the anti-inflammatory agent dexamethasone prior to injury.

The test system of experiment [2] is MB49 bladder carcinoma cell line. The experiment is described as follows: Peptide uptake by MB49 bladder carcinoma cells. It is filed as cell-based, murine. As to the method:
An MB49 bladder carcinoma cell line was maintained in full Dulbecco's modified Eagle's medium (DMEM) with antibiotics and L-glutamine. Cells were seeded on 24 well plates for at least 24 hours to allow the cells to grow to confluence; each sample was done in triplicate. Samples were then incubated with one of free CGKRK (SEQ ID NO:1) and KAREC (SEQ ID NO:2), micelles of these two peptides, fluorescence TAT peptide (positive control), and PBS (negative control). After the incubation, all wells were washed with PBS three times to remove any free fluorescence molecules. Cells were detached from the wells with trypsin at 37° C. for 5 minutes. 0.3% Triton X-100 in PBS was added to the cells, and after 30 minutes of incubation, the solutions were centrifugated in an Eppendorf microcentrifuge at 15,000 rpm. The fluorescence intensity of the supernatant was measured using a fluorescence plate reader. For confocal imaging, cells were grown on glass chamber slides. Following the incubation experiment, cells were imaged with a Nikon MR Confocal STORM super-resolution microscope.

Ends that are not written are not given here.

collagen type I, sequence (P02452 162-1218 limits assumed): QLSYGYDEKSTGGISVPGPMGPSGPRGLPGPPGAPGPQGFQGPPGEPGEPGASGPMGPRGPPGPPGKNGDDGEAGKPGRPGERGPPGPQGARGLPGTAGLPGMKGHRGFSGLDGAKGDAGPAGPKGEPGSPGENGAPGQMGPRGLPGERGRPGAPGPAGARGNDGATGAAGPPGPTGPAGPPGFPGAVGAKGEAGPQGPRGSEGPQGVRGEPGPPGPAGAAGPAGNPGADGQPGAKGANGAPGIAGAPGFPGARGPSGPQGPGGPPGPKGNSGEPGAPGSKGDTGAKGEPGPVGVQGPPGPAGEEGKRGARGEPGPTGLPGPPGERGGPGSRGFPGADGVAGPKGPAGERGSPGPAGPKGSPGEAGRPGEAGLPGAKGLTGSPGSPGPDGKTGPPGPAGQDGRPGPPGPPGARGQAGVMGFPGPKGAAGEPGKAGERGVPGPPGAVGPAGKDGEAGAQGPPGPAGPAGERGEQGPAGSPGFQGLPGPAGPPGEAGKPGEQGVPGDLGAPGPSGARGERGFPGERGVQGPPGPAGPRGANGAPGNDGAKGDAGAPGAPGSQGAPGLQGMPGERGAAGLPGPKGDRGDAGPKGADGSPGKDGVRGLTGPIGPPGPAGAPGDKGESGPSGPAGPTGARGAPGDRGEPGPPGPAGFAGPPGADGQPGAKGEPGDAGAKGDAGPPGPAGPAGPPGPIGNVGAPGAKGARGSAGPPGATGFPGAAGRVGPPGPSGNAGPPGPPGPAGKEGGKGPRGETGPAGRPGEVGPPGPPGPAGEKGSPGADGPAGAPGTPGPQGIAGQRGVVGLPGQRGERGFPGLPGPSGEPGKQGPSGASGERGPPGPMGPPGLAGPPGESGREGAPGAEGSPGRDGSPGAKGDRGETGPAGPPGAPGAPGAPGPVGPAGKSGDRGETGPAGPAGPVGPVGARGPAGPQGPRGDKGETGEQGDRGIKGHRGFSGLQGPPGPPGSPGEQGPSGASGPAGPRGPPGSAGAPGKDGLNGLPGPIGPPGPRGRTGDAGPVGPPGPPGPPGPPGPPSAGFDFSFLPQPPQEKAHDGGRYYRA
collagen type I, sequence (P08123 80-1119 limits assumed): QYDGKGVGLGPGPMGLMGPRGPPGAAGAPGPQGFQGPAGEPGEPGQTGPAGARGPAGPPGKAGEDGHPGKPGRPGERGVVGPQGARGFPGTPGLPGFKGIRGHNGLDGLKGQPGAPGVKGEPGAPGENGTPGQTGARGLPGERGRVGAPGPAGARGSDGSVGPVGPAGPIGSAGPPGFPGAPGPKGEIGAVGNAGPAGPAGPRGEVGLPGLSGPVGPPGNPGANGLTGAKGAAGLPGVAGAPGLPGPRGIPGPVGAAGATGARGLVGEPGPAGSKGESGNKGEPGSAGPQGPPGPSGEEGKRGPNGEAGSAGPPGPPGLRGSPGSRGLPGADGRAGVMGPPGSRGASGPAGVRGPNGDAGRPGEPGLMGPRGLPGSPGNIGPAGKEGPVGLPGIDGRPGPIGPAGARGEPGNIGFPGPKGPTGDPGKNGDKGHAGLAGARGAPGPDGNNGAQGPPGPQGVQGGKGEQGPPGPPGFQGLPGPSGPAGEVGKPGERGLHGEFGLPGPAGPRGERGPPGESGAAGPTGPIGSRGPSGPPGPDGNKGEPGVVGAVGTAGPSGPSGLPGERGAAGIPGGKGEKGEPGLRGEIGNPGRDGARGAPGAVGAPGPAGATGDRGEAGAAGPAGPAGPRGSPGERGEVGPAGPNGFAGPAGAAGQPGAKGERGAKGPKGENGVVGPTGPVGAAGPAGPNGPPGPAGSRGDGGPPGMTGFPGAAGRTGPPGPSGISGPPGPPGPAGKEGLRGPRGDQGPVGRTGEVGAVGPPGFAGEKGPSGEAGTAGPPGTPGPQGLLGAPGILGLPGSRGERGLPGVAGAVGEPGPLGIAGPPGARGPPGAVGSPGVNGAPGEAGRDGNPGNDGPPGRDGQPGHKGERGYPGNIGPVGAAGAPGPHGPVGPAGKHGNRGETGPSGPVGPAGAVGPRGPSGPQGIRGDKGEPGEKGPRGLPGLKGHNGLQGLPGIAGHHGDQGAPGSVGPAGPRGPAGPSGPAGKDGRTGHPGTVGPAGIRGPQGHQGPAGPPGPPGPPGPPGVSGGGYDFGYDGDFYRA

Consider “CGKRK (also: fluorescent label) [cell-penetrating pentapeptide, fluorescently labelled in the tests]”, for which the “Kinetics of binding to heparin (curve fit)” value in experiment [1] is “linear kinetics for other binding”. Moreover, the Binding to heparin entry in experiment [1] (versus KAREC) is “more efficient binding to both heparin and collagen type I”. In addition, the “Kinetics of binding to collagen (curve fit)” value in the experiment with collagen type I was “saturation kinetics”. In the experiment with collagen type I (versus KAREC), the “Binding to collagen type I” value is “more efficient binding to both heparin and collagen type I”. Also, the “Accumulation after chemical disruption of the urothelium barrier with ethanol” value in the experiment with bladder urothelium (2× and 20× magnification) is recorded as “widespread accumulation”. Also, the “Binding in the bladder, in situ images” value in the experiment on bladder urothelium (absence of focal injury) is “no binding”; in the experiment on bladder urothelium (after mechanical injury), “efficient binding after injury”. In the experiment with bladder urothelium (injured bladder, FIG. 7), the “Histological analysis of binding, entire bladder” value is recorded as “widespread binding”. Further, the “Histological analysis of binding, tissue layers” value in the experiment with bladder urothelium (injured bladder, 20× magnification, FIG. 7) is “accumulation of the peptide in the urothelium (U) and some penetration into the muscle layer (ML)”. The “Injury-induced binding after dexamethasone pretreatment” value in the experiment with bladder urothelium (mice pretreated with dexamethasone prior to injury) is “did not block injury-induced binding”. The “Binding when mixed with EDTA-treated blood” value in the experiment on bladder urothelium (no injury, intravesical) is given as “Blood did not induce binding in the absence of injury”. Also, the “Cellular uptake, accumulation in the cytoplasm (confocal images)” value in experiment [2] is “significant accumulation”. The “Peptide uptake quantified by fluorescence spectroscopy” value in experiment [2] (FIG. 5A, versus KAREC) is on record as “significantly more accumulation”.

Take “KAREC [comparison peptide tested beside CGKRK, reference compound]”: the “Kinetics of binding to heparin (curve fit)” value in experiment [1] is reported as “linear kinetics for other binding”. Further, in the experiment with collagen type I, the “Kinetics of binding to collagen (curve fit)” value was “linear kinetics for other binding”. The “Binding in the bladder, in situ images” value in the experiment on bladder urothelium (after mechanical injury) is recorded as “limited binding at the injury site”. Besides, in the experiment with bladder urothelium (injured bladder, FIG. 7), the “Histological analysis of binding, entire bladder” value is “less efficient and less widespread accumulation”.
